These are literature values, as cited in paper PMC7220402 (Medicine, 2020).

Consider `COc1c(C)c2c(c(O)c1C/C=C(\C)CCC(=O)O)C(=O)OC2` [MPA, mycophenolic acid], for which the “Variation in dose-normalized MPA exposure” value is reported as 10 fold.
